From ChEMBL document CHEMBL1201862, “PubChem BioAssay data set” (2004)
Active and inactive are the calls of the source.

Experiments:
Vero [1] = experiment: Vero 76 cell viability after compound exposure – Vero 76 cells, synthesized analogs, cytotoxicity control for West Nile virus antiviral project, SAR follow-up (AID 2414); format: functional; conditions: Chlorocebus sabaeus
Vero [2] = experiment: Vero cell viability after compound exposure – synthesized analogs, set II, cytotoxicity control for West Nile virus antiviral project, SAR follow-up (AID 2402); format: functional; conditions: Chlorocebus sabaeus
Vero [3] = experiment: host cell viability loss, Vero E6 – synthesized analogs, cytotoxicity control for West Nile virus antiviral project, SAR follow-up (AID 2244); format: functional; conditions: Chlorocebus sabaeus
Vero [4] = experiment: antiviral protection of cells from WNV – synthesized analogs, SAR follow-up (AID 2238); format: functional, cell-based; conditions: Chlorocebus sabaeus
[5] = target: T1, Eukaryotic translation initiation factor 4H (Homo sapiens, UniProt Q15056); experiment: eIF4H binding inhibition – biochemical, uHTS, fluorescence polarization, translation initiation inhibitor project, primary screen (AID 2012)
[6] = target: T2, Polyadenylate-binding protein 1 (Homo sapiens, UniProt P11940); experiment: blockers of PABP interaction with poly(A) – biochemical, fluorescence polarization, […] (AID 2014)
T2 sequence (P11940 whole entry): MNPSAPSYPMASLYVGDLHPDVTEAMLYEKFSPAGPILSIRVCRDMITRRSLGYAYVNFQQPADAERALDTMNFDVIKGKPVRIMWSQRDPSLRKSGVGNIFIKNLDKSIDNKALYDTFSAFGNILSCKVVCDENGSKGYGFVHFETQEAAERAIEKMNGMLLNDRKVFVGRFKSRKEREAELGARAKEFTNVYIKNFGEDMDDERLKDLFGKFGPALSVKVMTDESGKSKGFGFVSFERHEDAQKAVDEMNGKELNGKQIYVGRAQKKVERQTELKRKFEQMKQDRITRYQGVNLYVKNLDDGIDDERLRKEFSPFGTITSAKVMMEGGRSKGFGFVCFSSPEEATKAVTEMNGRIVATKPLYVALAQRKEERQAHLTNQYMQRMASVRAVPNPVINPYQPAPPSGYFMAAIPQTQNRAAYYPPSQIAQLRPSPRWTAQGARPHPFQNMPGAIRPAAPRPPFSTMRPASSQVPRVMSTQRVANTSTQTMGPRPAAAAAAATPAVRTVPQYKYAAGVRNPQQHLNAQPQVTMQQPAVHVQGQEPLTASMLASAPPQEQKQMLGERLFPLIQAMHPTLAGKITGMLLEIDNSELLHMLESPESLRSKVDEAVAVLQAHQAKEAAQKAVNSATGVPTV

[7] = target: T1, Eukaryotic translation initiation factor 4H; experiment: inhibitors of translation initiation factor eIF4H – SAR follow-up (AID 435011); format: functional
[8] = target: T2, Polyadenylate-binding protein 1; experiment: PABP inhibition in translation initiation, SAR follow-up (AID 435018); format: functional
[9] = target: G-protein coupled receptor 35 (Homo sapiens, UniProt Q9HC97); experiment: inhibition of zaprinast-stimulated GPR35 beta-arrestin translocation – imaging, U2OS, beta-arrestin-GFP, zaprinast agonist, primary screen (AID 2058); format: functional;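 also: antagonist potency meaning inhibition of agonist-induced arrestin redistribution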
Chain of G-protein coupled receptor 35 (Q9HC97 whole entry): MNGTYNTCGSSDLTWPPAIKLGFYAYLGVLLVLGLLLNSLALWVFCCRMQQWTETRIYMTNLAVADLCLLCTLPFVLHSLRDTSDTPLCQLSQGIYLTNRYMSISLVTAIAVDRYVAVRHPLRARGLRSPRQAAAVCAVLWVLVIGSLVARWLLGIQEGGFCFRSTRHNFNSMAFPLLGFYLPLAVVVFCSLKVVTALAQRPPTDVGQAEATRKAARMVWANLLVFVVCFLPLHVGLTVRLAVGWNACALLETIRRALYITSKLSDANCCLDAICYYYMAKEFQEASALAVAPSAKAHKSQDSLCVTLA

[10] = target: T3, Heat shock factor protein 1 (Mus musculus, UniProt P38532); experiment: decrease of HSF1-responsive luciferase luminescence – cell-based, NIH3T3, dose retest, confirmation (AID 2382); format: functional;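 also: NIH3T3 fibroblasts with HSF1-driven luciferase reporter stressed by proteasome inhibitor MG132; luminescence from HSF1-driven luciferase expression after 8 hours of MG132 stress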
T3 sequence (P38532 whole entry): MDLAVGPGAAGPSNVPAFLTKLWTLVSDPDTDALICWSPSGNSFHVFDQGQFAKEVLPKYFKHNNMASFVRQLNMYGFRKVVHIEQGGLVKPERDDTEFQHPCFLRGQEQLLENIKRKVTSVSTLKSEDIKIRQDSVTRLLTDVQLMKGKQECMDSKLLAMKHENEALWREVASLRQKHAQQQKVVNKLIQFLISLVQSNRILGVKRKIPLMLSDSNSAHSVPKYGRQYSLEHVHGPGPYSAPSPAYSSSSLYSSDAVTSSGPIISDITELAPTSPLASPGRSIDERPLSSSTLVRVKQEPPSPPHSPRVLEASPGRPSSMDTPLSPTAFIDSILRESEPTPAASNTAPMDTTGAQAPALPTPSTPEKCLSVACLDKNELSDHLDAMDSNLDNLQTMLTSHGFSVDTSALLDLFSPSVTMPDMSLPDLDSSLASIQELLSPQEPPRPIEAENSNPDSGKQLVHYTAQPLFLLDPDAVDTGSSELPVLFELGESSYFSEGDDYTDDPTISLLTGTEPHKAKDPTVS

Saccharomyces cerevisiae = experiment: S. cerevisiae Caspase-1/ASC signal blockers IC50, NALP1 inhibitor project selectivity test (AID 488863); format: functional, organism-based
[11] = target: NACHT, LRR and PYD domains-containing protein 1 (Homo sapiens, UniProt Q9C000); experiment: NALP1 inhibitors in yeast, dose response, luminescent (AID 488860); format: functional
Chain of NACHT, LRR and PYD domains-containing protein 1 (Q9C000 1-1212 limits assumed): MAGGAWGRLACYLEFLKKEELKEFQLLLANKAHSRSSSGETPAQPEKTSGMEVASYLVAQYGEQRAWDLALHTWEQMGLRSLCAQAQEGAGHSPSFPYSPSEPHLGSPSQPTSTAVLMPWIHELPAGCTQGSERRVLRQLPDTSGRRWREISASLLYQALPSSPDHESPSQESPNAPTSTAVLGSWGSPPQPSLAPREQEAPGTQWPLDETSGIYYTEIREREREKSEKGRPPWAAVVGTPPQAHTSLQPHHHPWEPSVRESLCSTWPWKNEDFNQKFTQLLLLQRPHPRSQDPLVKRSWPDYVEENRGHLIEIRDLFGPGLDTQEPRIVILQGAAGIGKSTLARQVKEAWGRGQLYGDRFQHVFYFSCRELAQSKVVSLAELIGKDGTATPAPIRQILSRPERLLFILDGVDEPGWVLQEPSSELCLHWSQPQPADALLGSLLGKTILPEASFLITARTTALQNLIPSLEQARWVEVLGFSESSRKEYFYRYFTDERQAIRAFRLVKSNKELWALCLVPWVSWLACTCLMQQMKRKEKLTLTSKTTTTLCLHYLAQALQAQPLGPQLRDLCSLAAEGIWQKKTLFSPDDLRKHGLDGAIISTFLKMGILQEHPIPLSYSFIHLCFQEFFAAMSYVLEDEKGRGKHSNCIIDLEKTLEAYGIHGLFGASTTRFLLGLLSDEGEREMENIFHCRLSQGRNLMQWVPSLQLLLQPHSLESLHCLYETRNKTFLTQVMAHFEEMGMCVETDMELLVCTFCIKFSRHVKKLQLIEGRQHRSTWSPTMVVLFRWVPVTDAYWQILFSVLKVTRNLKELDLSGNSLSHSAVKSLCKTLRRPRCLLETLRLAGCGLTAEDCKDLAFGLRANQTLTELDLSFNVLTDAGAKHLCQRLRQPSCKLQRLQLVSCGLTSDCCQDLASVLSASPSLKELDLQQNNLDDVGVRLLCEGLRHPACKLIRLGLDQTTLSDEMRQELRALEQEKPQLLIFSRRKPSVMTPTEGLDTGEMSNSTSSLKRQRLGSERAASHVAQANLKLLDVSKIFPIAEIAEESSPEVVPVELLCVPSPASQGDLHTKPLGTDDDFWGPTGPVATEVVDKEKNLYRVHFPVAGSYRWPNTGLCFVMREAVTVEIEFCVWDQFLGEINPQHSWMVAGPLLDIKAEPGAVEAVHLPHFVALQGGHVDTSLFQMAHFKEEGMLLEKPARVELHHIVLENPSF
Chain of NACHT, LRR and PYD domains-containing protein 1 (Q9C000 1213-1473 limits assumed): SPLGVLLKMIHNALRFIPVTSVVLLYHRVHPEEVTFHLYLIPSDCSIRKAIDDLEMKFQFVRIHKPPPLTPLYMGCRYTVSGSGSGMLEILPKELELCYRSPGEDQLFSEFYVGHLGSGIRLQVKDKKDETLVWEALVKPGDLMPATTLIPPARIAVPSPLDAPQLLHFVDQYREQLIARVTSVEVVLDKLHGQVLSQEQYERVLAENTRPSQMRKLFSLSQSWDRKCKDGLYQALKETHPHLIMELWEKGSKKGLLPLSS

Beta-galactosidase = Beta-galactosidase (Escherichia coli, UniProt Q8VNN2); experiment: detection-enzyme interference by beta-gal modulators – biochemical, E. coli enzyme, set 3, artefact control for CCR6 antagonist project, dose response (AID 504712); format: functional
Chain of Beta-galactosidase (Q8VNN2 whole entry, the tested form may be a part): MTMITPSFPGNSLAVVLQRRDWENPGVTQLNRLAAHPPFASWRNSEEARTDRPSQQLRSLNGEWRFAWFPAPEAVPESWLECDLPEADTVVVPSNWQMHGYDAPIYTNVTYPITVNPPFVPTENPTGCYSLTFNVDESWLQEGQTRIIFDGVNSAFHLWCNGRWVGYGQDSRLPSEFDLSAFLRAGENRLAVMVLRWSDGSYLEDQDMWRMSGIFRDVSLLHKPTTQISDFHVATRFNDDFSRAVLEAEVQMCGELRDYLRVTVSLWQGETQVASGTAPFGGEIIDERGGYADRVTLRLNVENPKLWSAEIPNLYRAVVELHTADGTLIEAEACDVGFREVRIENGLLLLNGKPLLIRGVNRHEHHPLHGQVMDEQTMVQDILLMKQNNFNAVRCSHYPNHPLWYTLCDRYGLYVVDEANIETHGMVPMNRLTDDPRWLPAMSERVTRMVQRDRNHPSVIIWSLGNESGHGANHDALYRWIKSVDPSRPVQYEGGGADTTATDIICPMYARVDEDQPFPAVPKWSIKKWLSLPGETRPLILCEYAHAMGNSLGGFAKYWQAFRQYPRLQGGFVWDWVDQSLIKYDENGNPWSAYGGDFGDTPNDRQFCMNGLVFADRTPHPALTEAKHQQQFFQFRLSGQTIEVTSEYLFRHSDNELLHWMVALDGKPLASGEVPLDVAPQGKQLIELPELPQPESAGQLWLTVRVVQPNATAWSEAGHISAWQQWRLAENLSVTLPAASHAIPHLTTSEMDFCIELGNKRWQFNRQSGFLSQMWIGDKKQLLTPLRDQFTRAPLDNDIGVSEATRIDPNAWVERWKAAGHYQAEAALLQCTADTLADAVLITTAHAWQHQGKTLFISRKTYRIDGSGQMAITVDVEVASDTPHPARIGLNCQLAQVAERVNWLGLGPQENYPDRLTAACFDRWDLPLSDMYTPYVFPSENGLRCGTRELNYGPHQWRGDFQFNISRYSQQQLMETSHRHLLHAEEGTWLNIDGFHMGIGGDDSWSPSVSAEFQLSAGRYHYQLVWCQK

CHO = CHO cell viability loss, potency – luminescence, cytotoxicity control for TLR9-MyD88 binding inhibitor project, dose response (AID 588339); format: functional, cell-based, hamster; conditions: Cricetulus griseus;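 also: CHO cells stably coexpressing TLR9 and MyD88 fusions from primary screen; compound exposure lasted 48 hours before viability readout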
[12] = target: T4, Replicative DNA helicase DnaB (Mycobacterium tuberculosis, UniProt P9WMR3); experiment: DnaB intein splicing inhibitors, dose response, biochemical, cell-free fluorescence (AID 449749); format: functional
T4 sequence (P9WMR3 whole entry): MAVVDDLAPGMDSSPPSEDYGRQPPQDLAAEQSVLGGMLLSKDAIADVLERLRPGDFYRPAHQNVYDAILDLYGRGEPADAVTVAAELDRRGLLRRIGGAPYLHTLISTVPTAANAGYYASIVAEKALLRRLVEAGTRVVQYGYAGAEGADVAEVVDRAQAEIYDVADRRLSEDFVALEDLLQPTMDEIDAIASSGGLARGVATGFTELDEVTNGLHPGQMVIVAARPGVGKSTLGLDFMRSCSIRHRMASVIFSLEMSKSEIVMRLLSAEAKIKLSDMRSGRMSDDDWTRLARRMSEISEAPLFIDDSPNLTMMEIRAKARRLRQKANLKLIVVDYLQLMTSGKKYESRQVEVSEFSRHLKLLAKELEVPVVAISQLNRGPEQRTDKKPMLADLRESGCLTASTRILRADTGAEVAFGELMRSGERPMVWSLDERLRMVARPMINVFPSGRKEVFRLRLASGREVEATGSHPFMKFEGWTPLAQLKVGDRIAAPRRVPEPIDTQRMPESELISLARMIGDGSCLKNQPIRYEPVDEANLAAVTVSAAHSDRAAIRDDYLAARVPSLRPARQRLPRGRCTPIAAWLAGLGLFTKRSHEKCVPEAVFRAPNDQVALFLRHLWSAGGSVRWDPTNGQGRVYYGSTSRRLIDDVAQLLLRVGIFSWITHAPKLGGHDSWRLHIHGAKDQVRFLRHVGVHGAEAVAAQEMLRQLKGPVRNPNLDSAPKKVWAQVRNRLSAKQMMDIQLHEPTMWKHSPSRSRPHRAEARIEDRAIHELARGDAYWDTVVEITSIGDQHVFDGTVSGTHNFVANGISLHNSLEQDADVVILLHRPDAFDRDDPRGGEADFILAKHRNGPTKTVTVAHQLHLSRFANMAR

Protein RecA = target: T5, Protein RecA (Mycobacterium tuberculosis, UniProt P9WHJ3); experiment: Fluorescence Cell-Free Homogeneous Dose Retest to Identify Inhibitors of RecA-Intein Splicing Activity. [Related pubchem assays (depositor defined):AID2097, AID2223, AID489010, AID492950]; format: functional
T5 sequence (P9WHJ3 whole entry): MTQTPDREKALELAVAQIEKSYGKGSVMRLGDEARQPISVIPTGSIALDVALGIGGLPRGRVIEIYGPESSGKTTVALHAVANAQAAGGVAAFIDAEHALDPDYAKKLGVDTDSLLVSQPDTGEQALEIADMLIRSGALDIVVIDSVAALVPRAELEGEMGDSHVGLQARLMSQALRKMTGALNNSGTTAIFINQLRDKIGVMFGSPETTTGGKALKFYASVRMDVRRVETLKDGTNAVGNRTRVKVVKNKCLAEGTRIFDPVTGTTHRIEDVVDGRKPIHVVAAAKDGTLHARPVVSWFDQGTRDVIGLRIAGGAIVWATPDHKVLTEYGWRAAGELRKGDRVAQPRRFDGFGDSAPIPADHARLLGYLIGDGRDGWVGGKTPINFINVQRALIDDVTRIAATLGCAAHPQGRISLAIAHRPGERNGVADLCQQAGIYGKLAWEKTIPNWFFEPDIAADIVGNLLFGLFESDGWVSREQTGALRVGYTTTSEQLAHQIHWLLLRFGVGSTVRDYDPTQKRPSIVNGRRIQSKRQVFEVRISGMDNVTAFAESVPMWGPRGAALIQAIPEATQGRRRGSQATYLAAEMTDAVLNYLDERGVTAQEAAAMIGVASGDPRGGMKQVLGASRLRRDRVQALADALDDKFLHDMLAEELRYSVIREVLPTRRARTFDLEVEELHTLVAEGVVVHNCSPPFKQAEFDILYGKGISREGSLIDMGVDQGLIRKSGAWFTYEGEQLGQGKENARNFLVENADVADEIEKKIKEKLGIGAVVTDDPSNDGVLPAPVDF

Beta Lactamase = Beta Lactamase (Pseudomonas aeruginosa, UniProt Q932Y6); experiment: BLA reporter interference, concentration series – BLA reporter cells, FRET fluorescence, artefact control for TLR9-MyD88 binding inhibitor project, dose response (AID 588341); format: cell-based;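 also: cell based assay in CHO-K1 cells stably expressing beta-lactamase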
Chain of Beta Lactamase (Q932Y6 whole entry): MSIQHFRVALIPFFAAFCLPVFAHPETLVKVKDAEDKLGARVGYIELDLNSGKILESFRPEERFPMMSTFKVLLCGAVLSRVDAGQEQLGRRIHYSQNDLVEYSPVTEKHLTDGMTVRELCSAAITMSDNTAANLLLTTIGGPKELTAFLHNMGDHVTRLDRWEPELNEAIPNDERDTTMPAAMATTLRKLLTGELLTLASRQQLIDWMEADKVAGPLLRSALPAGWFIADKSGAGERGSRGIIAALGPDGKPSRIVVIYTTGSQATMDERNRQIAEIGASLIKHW

HEK293 [13] = experiment: cells; conditions: Homo sapiens
HEK293 [14] = experiment: cells; conditions: Homo sapiens; remark: listed apart in the source

## O=C(CSc1nc2ccccc2c(=O)n1-c1ccccc1F)Nc1ccc2c(c1)CCC2
Vero [1]
  CC50: > 66.6 µM (active)
Vero [2]
  CC50: > 100 µM (active)
Vero [3]
  CC50: > 40 µM (active)
Vero [4]
  IC50: 16.4 µM (active)

## O=C(Nc1cccc2ncccc12)c1ccccc1Cl
[5]
  IC50: > 100 µM (inactive)
[6]
  IC50: 4 µM (active)
[7]
  IC50: 9.25 µM (active)
[8]
  IC50: 1.68 µM (active)

## CC(NC(=O)/C(C#N)=C/c1ccc([N+](=O)[O-])o1)c1ccccc1 (centres undefined)
[9]
  IC50: 3.85 µM (active)
[10]
  EC50: 6.1 µM (active)
Saccharomyces cerevisiae
  IC50: 9.51 µM (active)
[11]
  IC50: 14.3 µM (active)
Beta-galactosidase
  IC50: > 66.6 µM (inactive)
CHO
  IC50: 4.03 µM (active)
[12]
  AC50: > 120 µM (inactive)
Protein RecA
  EC50: 35 µM (active)
Beta Lactamase
  IC50: 8.23 µM (active)
HEK293 [13]
  EC50: > 59.6 µM (inactive)
HEK293 [14]
  EC50: > 59.6 µM (inactive)
